Experimental data: patent US8415300B2, “Sustained release of microcrystalline peptide suspensions” (Medical Research Council Technology, priority 2001, dated 2013)
Counter-ions that a name gives are not always drawn. Starred links: 1 amine or outer side, 2 acyl side, 3 side chain; linkers in the order of their positions; H or OH if unused. Positions of bridges follow the written chain, without caps; N, C: chain ends. Non-standard residues stand in square brackets, D forms with d. Residues, ends and D or L forms follow the SMILES beside them. Groups on a side chain read outwards from the residue. No end group written: not given here. *: point of attachment. dTrp(2-Me) = Cc1[nH]c2ccccc2c1C[C@@H](N)C(=O)O; Trp(2-Me) = Cc1[nH]c2ccccc2c1C[C@H](N)C(=O)O; dPhe(4-Cl) = N[C@H](Cc1ccc(Cl)cc1)C(=O)O; d2Nal = N[C@H](Cc1ccc2ccccc2c1)C(=O)O; d(hCit) = NC(=O)NCCCC[C@@H](N)C(=O)O; Lys(iPr) = CC(C)NCCCC[C@H](N)C(=O)O; Ethylenediamine = C(CN[*:2])N[*:1]; Hyp = O=C(O)[C@@H]1C[C@@H](O)CN1; dCit = NC(=O)NCCC[C@@H](N)C(=O)O; d3Pal = N[C@H](Cc1cccnc1)C(=O)O; Phg = N[C@H](C(=O)O)c1ccccc1; CO = O=C([*:1])[*:2]; Bn = c1ccc(C*)cc1

Assays:
[1] = Physical form (gel or flowing milky microcrystalline suspension) of the peptide salt mixed with aqueous medium or counter-ion acid; type: physicochemical
Method: Such behavior is not elicited by other salts such as the acetate, which result in the expected, but unwanted, formation of gels with poor bioavailability in vivo.
(§1) 200 μL of 5% mannitol were added to approximately 15 mg of the LHRH antagonist Teverelix trifluoroacetate. […] The suspension is made of microcrystals of about 10 μm length. Microcrystals may clump together to form urchin like structures. The suspension was injected in rats (1 mg) sub-cutaneously and provided the pharmacodynamic effect of testosterone suppression for more than 45 days (FIG. 1).
200 μL of water were added to approximately 15 mg of the LHRH antagonist Teverelix trifluoroacetate.
200 μL of water were added to approximately 15 mg of the LHRH antagonist Teverelix acetate.
In another study, 100 μL of TFA of various concentrations were added to 7.5 mg of the LHRH antagonist Teverelix acetate, with the TFA/Teverelix molar ratio ranging from 1 to 3.
200 μL of 150 mM TFA were added to amounts of the LHRH antagonist Teverelix acetate ranging from 5 to 30 mg (concentration ranging from 25 to 150 mg/mL).
The suspension was freeze-dried overnight.
(§2) The suspension was freeze-dried overnight. […] These suspensions were stable for at least 3 days at room temperature.
The suspension is made of microcrystals of about […] length. Microcrystals may assemble together to form urchin like structures. The suspension was freeze-dried overnight. […]

[2] = Pharmacokinetic analysis: sustained release of the peptide after injection of the suspension; type: in vivo, rats
Method: FIG. 2 is a graph which illustrates the sustained release of the peptide Teverelix for several weeks in rats injected with the suspension of Teverelix trifluoroacetate according to the invention.
as §1

[3] = Stability of reconstituted suspensions at room temperature; type: physicochemical; conditions: reconstituted with water and 0.2 M acetate buffer pH 4.0
From the text: as §2

[4] = 100 μL of 150 mM trifluoroacetic acid solution added to 7.5 mg

In the case of “D-Nal-c[Cys-Tyr-D-Trp-Lys-Val-Cys]-Trp(2Me)-NH2”, the “physical form after mixing” value [1, 4] is reported as “Free flowing suspensions”.

With “Ac-D-Nal-D-pClPhe-D-Pal-Ser-Tyr-D-Hci-Leu-Lys(iPr)-Pro-D-Ala-NH2 [Teverelix hydrochloride]” the “physical form after mixing” value ([1]; 100 μL of 150 mM benzenesulfonic acid added to 7.5 mg) was “free flowing suspension”.

For “[dF]CY[dW]KVC[Trp(2-Me)]-NH2 (disulfide 2-7)”, the “physical form after mixing” value [1, 4] was “Free flowing suspensions”.

For `CC(=O)N[C@H](Cc1ccc2ccccc2c1)C(=O)N[C@H](Cc1ccc(Cl)cc1)C(=O)N[C@H](Cc1cccnc1)C(=O)N[C@@H](CO)C(=O)N[C@@H](Cc1ccc(O)cc1)C(=O)N[C@H](CCCCNC(N)=O)C(=O)N[C@@H](CC(C)C)C(=O)N[C@@H](CCCCNC(C)C)C(=O)N1CCC[C@H]1C(=O)N[C@H](C)C(N)=O` [Teverelix trifluoroacetate, Ac-D-Nal-D-pClPhe-D-Pal-Ser-Tyr-D-Hci-Leu-Lys(iPr)-Pro-D-Ala-NH2] (Ac-[d2Nal][dPhe(4-Cl)][d3Pal]SY[d(hCit)]L[Lys(iPr)]P[dA]-NH2), the “sustained release of the peptide, duration” value ([2]; rats, 1 mg sub-cutaneously, suspension in 5% mannitol) was “several weeks”.

In the case of `CC(=O)N[C@H](Cc1ccc2ccccc2c1)C(=O)N[C@H](Cc1ccc(Cl)cc1)C(=O)N[C@H](Cc1cccnc1)C(=O)N[C@@H](CO)C(=O)N[C@@H](Cc1ccc(O)cc1)C(=O)N[C@H](CCCNC(N)=O)C(=O)N[C@@H](CC(C)C)C(=O)N[C@@H](CCCNC(=N)N)C(=O)N1CCC[C@H]1C(=O)N[C@H](C)C(N)=O` [Cetrorelix acetate, reference compound] (Ac-[d2Nal][dPhe(4-Cl)][d3Pal]SY[dCit]LRP[dA]-NH2), the “physical form after mixing” value ([1]; 100 μL of 200 mM trifluoroacetic acid solution added to 2.5 mg) is reported as “milky free flowing suspension”.

In the case of “[dTrp(2-Me)]CF[dW]KTC[Trp(2-Me)]-NH2 (disulfide 2-7)”, the “physical form after mixing” value [1, 4] is reported as “Free flowing suspensions”.

With “Ac-D-Nal-D-pClPhe-D-Pal-Ser-Tyr-D-Hci-Leu-Lys(iPr)-Pro-D-Ala-NH2 [Teverelix]” the “release of the active principle, duration” value ([2]; highly concentrated aqueous suspension of TFA or sulfate salt injected parenterally, general statement (FIGS. 1 and 2)) was “several weeks” and the “physical form of highly concentrated aqueous suspension” value ([1]; as trifluoroacetate (TFA) or sulfate salt, general statement) was “microcrystalline milky suspension”.

With `NCCCC[C@@H]1NC(=O)[C@@H](Cc2c[nH]c3ccccc23)NC(=O)[C@H](c2ccccc2)NC(=O)[C@@H]2C[C@@H](OC(=O)NCCN)CN2C(=O)[C@H](Cc2ccccc2)NC(=O)[C@H](Cc2ccc(OCc3ccccc3)cc2)NC1=O` [SOM 230, ETD-carboxy-c[Hyp-Phg-D-Trp-Lys-Tyr(Bzl)-Phe], reference compound] (cyclo([Hyp]([CO-Ethylenediamine])[Phg][dW]KY(Bn)F)) the “physical form after mixing” value ([1]; 100 μL of 5% mannitol-water solution added to approximately 5 mg) was “milky free flowing suspension”.

With “Ac-D-Nal-D-pClPhe-D-Pal-Ser-Tyr-D-Hci-Leu-Lys(iPr)-Pro-D-Ala-NH2 [Teverelix acetate]” the “stability of the reconstituted suspensions” value [3] was “at least 3 days”, the “physical form after mixing” value ([1]; 150 mM TFA (3 mols/mol): 200 μL to approximately 15 mg (Example 6) or 1 mL to approximately 75 mg (Example 7)) was “flowing milky suspension” and the “physical form after freeze-drying and reconstitution” value ([1]; 150 mM TFA suspension freeze-dried overnight, 1 mL of water and 0.2 M acetate buffer pH 4.0 added) was “flowing milky suspension”. For the same molecule, the “physical form after freeze-drying and reconstitution” value ([1]; 150 mM TFA suspension freeze-dried overnight, 200 μL of water or 5% mannitol added) was “flowing milky suspension”, the “physical form after addition of TFA to the gel” value ([1]; 20 μL of TFA (3 mols/mol) added to gel of approximately 15 mg in 200 μL water) was “fluid, flowing milky pearly suspension” and the “physical form after mixing” value ([1]; 100 μL of 150 mM trifluoromethane sulfonic acid solution added to 7.5 mg) was “free flowing milky suspension”. The “physical form after mixing” value ([1]; 100 μL of 250 mM H2SO4 added to 7.5 mg (5 mols/mol), after several hours) was “flowing milky suspension”, the “TFA/Teverelix molar ratio at which a flowing milky suspension was obtained” value ([1]; 100 μL of TFA of various concentrations added to 7.5 mg, molar ratio ranging from 1 to 3, gels at other ratios) was 1.6 and the “physical form after mixing” value ([1]; 200 μL of 75 mM TFA with approximately 15 mg (1.5 mol/mol)) was “transparent gel”. For the same molecule, the “physical form after mixing” value ([1]; 200 μL of 100 mM TFA added to approximately 15 mg (2 mols/mol)) was “flowing milky suspension”, the “concentration at which a flowing milky suspension was obtained” value ([1]; 200 μL of 150 mM TFA added to 5 to 30 mg (25 to 150 mg/mL)) was “up to 100 mg/mL” and the “physical form after freeze-drying and reconstitution” value ([1]; H2SO4 suspension freeze-dried overnight, 100 μl of water or 5% mannitol added) was “flowing milky suspension”. The “physical form after mixing” value ([1]; approximately 15 mg in 200 μL of water, vortex one minute) was “transparent gel” and the microcrystal length ([1]; suspension from 100 μL of 250 mM H2SO4 and 7.5 mg) was “about 100 μm”.

In the case of [dF]CY[dW]KVCW-NH2 (disulfide 2-7), the “physical form after mixing” value [1, 4] is reported as “Free flowing suspensions”.
